Measured values published in patent publication US8557286B1, “Method for producing a water-insoluble amorphous or partially amorphous controlled release matrix” (EuroCeltique, S.A., priority 2000, dated 2013).

Assay: Release of the active agent in a paddle agitator model according to USP
Format: physicochemical
Conditions: total dose of 25 mg; pure caffeine, not retarded, filled in a capsule; FIG. 3
Excerpt: In this context it is once again pointed out that the degree of destructurization into the glass state is decisive for the kinetics of the release of the active agents. […] For comparative purposes, the release of pure caffeine, not retarded and filled in a capsule has been drawn in.

## Cn1c(=O)c2c(ncn2C)n(C)c1=O [caffeine]
  Time of release for the total dose: about 15 minutes
